According to patent US6475746B1, “Method of obtaining a composition comprising a 5-HT1D selective compound” (Synaptic Pharmaceutical Corporation, priority 1990, dated 2002):
Like-named read-outs stand apart in the source and are kept apart here.

Columns and labels:
Cloned Human 5-HT1D-1 = Cloned Human 5-HT1D-1 (Homo sapiens, UniProt P28221); test: [3H]5-HT binding to cloned human 5-HT1D-1 (gene 8-30-84) in transfected cell membranes
Cloned Human 5-HT1D-2 = Cloned Human 5-HT1D-2 (Homo sapiens, UniProt P28222); test: [3H]5-HT binding to cloned human 5-HT1D-2 (gene 11) in transfected cell membranes
[1] = target: Human Native Membranes 5-HT1D; settings: literature values (footnotes a, b, c), read-out: Estimated equilibrium dissociation constants (Ki values); cited from earlier work
[2] = target: Cloned Canine 5-HT1D-1 (RDC4) (Canis lupus familiaris, UniProt P11614); test: [3H]5-HT binding to cloned canine 5-HT1D-1 (RDC4) in transfected cell membranes
[3] = target: T1, cloned rat 5-HT1B receptor (Rattus norvegicus, UniProt P28564); assay type: binding
T1 construct: expressed in transfected cells; host or cells: Cos-7 cells, transient; membrane fraction
Experimental: To islolate the putative rat homolog of the 5-HT1D gone, a rat library was screened at high stringency using a human 5-HT1D sequence as a probe. […] To identify the pharmacological profile of this receptor, radioligand binding assays were performed on a membrane fraction derived from the transfected cells.

human 5-HT1D clone = test: Radioligand binding to human 5-HT1D clone (comparison with rat clone)
[4] = read-out: Estimated equilibrium dissociation constants (Ki values), [3H]5-HT displacement, membranes of LM (tk−) cells stably transfected, Cheng-Prusoff

Cloned Canine 5-HT1D-1 (RDC4), sequence (P11614 whole entry): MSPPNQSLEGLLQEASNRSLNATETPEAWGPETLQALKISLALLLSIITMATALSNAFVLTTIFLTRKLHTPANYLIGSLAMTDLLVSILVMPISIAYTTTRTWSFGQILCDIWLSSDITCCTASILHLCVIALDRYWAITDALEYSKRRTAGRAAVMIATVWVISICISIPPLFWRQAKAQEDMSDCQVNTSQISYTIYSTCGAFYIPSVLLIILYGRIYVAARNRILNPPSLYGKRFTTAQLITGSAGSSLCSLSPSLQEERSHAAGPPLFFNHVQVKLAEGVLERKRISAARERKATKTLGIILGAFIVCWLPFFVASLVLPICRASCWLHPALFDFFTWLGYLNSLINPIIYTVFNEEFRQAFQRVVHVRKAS
Cloned Human 5-HT1D-1, sequence (P28221 whole entry): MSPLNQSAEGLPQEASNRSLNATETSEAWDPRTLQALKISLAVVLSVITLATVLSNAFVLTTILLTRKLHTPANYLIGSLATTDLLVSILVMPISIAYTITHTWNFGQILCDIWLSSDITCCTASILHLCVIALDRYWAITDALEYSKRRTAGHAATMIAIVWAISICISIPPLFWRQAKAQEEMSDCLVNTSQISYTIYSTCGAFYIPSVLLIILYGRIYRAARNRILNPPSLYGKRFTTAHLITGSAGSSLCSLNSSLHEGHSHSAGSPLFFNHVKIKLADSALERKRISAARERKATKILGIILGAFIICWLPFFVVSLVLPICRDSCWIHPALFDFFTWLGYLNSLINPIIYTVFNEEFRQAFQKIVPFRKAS
Cloned Human 5-HT1D-2, sequence (P28222 whole entry): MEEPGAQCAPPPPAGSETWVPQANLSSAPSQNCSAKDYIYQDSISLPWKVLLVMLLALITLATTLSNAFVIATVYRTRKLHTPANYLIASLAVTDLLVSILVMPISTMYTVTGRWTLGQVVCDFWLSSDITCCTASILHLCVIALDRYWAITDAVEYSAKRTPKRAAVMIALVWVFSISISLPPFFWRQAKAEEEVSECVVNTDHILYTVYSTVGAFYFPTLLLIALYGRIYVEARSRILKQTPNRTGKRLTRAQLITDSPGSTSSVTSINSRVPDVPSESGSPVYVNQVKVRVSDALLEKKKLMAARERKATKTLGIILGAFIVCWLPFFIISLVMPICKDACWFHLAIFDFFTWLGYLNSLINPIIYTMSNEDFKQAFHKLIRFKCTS
T1 sequence (P28564 whole entry): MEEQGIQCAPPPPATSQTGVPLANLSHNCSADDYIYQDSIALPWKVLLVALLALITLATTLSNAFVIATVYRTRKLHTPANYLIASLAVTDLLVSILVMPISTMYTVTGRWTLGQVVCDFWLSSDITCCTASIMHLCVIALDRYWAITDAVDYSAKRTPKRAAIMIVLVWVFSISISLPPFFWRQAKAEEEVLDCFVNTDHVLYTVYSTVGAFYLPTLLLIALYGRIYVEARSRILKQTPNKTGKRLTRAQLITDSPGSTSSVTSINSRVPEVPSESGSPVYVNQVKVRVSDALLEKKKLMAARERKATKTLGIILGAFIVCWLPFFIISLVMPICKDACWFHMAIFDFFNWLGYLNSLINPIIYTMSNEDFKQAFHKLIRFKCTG

c1ccc2c(N3CCNCC3)cccc2c1 [1-Napthylpiperazine] showed a Ki (Cloned Human 5-HT1D-1; [4]) of 7.4 ± 0.6 nM and a Ki (Cloned Human 5-HT1D-2; [4]) of 12 ± 2 nM.

In the case of Cc1[nH]c2ccc(O)cc2c1CCN [2-methyl-5-HT], the Ki (Cloned Human 5-HT1D-1; [4]) is listed as 915 ± 68 nM, the Ki [1] is listed as 1700 nM and the Ki (Cloned Human 5-HT1D-2; [4]) is listed as 860 ± 109 nM. For the same molecule, the Ki [2, 4] was 444 ± 30 nM.

Molecule NCCc1c[nH]c2ccc(OCc3ccccc3)cc12 [5-Benzoxyltryptamine] has a Ki (Cloned Human 5-HT1D-1; [4]) of 9.6 ± 3 nM and a Ki (Cloned Human 5-HT1D-2; [4]) of 19 ± 8 nM.

In the case of NCCc1c[nH]c2ccc(C(N)=O)cc12 [5-Carboxamidotryptamine], the “affinity for the binding site” value ([2]; RDC4-transfected cells) is reported as “high affinity” and the Ki [2, 4] is reported as 0.92 ± 0.06 nM.

For NCCc1c[nH]c2ccc(O)cc12 [5-Hydrozytryptamine], the Ki [1] is given as 6.5 nM and the Ki [2, 4] is given as 5 ± 1.4 nM.

In the case of COc1ccc2[nH]cc(CCN)c2c1 [5-Methoxytryptamine], the Ki [1] is given as 6.2 nM.

COc1ccc2[nH]cc(CCN(C)C)c2c1 [5-methoxy-DMT] showed a Ki [2, 4] of 5.1 ± 1.7 nM.

With Oc1ccc2c(CCC3CCNCC3)c[nH]c2c1 [6-OH-indalpine] the “ability to compete for 3H-5-HT binding sites” value (shortened to “ability to compete”) ([2]; RDC4-transfected cells) was “unable to compete”.

For COc1cc(CC(C)N)c(OC)cc1I (stereo not shown) [DOI], the Ki (Cloned Human 5-HT1D-1; [4]) is given as 714 ± 81 nM, the Ki [1] is given as 670 nM and the Ki (Cloned Human 5-HT1D-2; [4]) is given as 1670 ± 451 nM. For the same molecule, the Ki [2, 4] was 729 ± 102 nM.

For CCCN(CCC)C1CCc2cccc(O)c2C1 (stereo not shown) [DPAT], the Ki [1] is listed as 340 nM and the Ki [2, 4] is listed as 86 ± 21 nM.

For CCCN(CCC)CCc1c[nH]c2ccc(C(N)=O)cc12 [Dipropyl-5-CT, dipropyl-5-carboxyamidotryptamine], the Ki (Cloned Human 5-HT1D-1; [4]) was 13 ± 1 nM, the Ki (Cloned Human 5-HT1D-2; [4]) was 42 ± 4 nM and the “activity at the rat receptor” value [3] was “essentially inactive”.

For CN1C[C@H](C(=O)N[C@]2(C)O[C@@]3(O)[C@@H]4CCCN4C(=O)[C@H](Cc4ccccc4)N3C2=O)C=C2c3cccc4[nH]cc(c34)C[C@H]21 [Ergotamine], the Ki [1] is listed as 0.3 nM and the Ki [2] is listed as 1.9 ± 0.3 nM.

For CN1[C@@H]2CC[C@H]1C[C@@H](OC(=O)c1c[nH]c3ccccc13)C2 [ICS 205-930], the “ability to compete” value ([2]; RDC4-transfected cells) was “unable to compete”.

For O=C(c1ccc(F)cc1)C1CCN(CCn2c(=O)[nH]c3ccccc3c2=O)CC1 [Ketanserin], the Ki (Cloned Human 5-HT1D-1) is given as 73 ± 12 nM, the Ki [1] is given as greater than 10000 nM and the Ki (Cloned Human 5-HT1D-2) is given as 5200 ± 524 nM. The Ki [2] was greater than 1000 nM and the “ability to compete” value ([2]; RDC4-transfected cells) was “unable to compete”.

CN1C[C@H](CO)C=C2c3cccc4[nH]cc(c34)C[C@H]21 [Lysergol] showed a Ki (Cloned Human 5-HT1D-1; [4]) of 0.63 ± 0.1 nM and a Ki (Cloned Human 5-HT1D-2; [4]) of 1.2 ± 0.1 nM.

In the case of CN1C[C@H](CNC(=O)OCc2ccccc2)C[C@@H]2c3cccc4c3c(cn4C)C[C@H]21 [Metergoline], the Ki (Cloned Human 5-HT1D-1) is listed as 5.8 ± 1.1 nM, the Ki [1] is listed as 12 nM and the Ki (Cloned Human 5-HT1D-2) is listed as 18 ± 3 nM.

For CSc1ccc2c(c1)C(N1CCN(C)CC1)Cc1ccccc1S2 (stereo not shown) [Methiothepin], the Ki (Cloned Human 5-HT1D-1; [4]) is listed as 11 ± 2 nM, the Ki [1] is listed as 17 nM and the Ki (Cloned Human 5-HT1D-2; [4]) is listed as 25 ± 7 nM.

In the case of CC[C@@H](CO)NC(=O)[C@@H]1C=C2c3cccc4[nH]cc(c34)C[C@H]2N(C)C1 [Methylergonovine], the Ki (Cloned Human 5-HT1D-1) is reported as 0.86 ± 0.36 nM and the Ki (Cloned Human 5-HT1D-2) is reported as 2.9 ± 1.5 nM.

Work on CC[C@@H](CO)NC(=O)[C@@H]1C=C2c3cccc4c3c(cn4C)C[C@H]2N(C)C1 [Methysergide] yielded a Ki (Cloned Human 5-HT1D-1; [4]) of 3.6 ± 0.6 nM, a Ki (Cloned Human 5-HT1D-2; [4]) of 25 ± 5 nM and a Ki [2, 4] of 7.7 ± 1.7 nM.

With COc1ccccc1N1CCN(CCCCN2C(=O)c3ccccc3C2=O)CC1 [NAN-190] the Ki (Cloned Human 5-HT1D-1) was 194 ± 12 nM and the Ki (Cloned Human 5-HT1D-2) was 652 ± 48 nM.

Work on Nc1ccc(CCN2CCN(c3cccc(C(F)(F)F)c3)CC2)cc1 [PAPP] yielded a Ki (Cloned Human 5-HT1D-1; [4]) of 3.1 ± 0.2 nM, a Ki (Cloned Human 5-HT1D-2; [4]) of 10 ± 1 nM and a Ki [2, 4] of 35 ± 6 nM.

With Cc1ccc(N(CC2=NCCN2)c2cccc(O)c2)cc1 [Phentolamine] the Ki (Cloned Human 5-HT1D-1) was 775 ± 72 nM and the Ki (Cloned Human 5-HT1D-2) was 2150 ± 685 nM.

In the case of CC(C)NCC(O)COc1cccc2[nH]ccc12 (stereo not shown) [Pindolol], the Ki (Cloned Human 5-HT1D-1) is given as 4110 ± 504 nM, the Ki [1] is given as greater than 10000 nM and the Ki (Cloned Human 5-HT1D-2) is given as 4880 ± 302 nM. For the same molecule, the “effect of masking ligand on specific binding or pharmacological profile” value (Cloned Human 5-HT1D-2; transfected Cos-7 cells, peptide 11, masking ligand 1 μM) was “no significant effect”, the Ki [2] was greater than 1000 nM and the “effect of co-incubation on high affinity 3H-5-HT binding” value ([2]; RDC4-transfected cells, 1 μm) was “not affected”. The “effect of masking ligand on specific binding or pharmacological profile” value ([2]; transfected Cos-7 cells, RDC4, masking ligand 1 μM) was “no significant effect”.

With COC(=O)[C@H]1[C@H]2C[C@H]3c4[nH]c5ccccc5c4CCN3C[C@H]2CC[C@@H]1O [Rauwolscine] the Ki (Cloned Human 5-HT1D-1) was 16 ± 2 nM and the Ki [2] was 5.3 ± 2.9 nM.

For Cc1nc2sccn2c(=O)c1CCN1CCC(=C(c2ccc(F)cc2)c2ccc(F)cc2)CC1 [Ritanserin], the Ki (Cloned Human 5-HT1D-1) is listed as 54 ± 10 nM, the Ki [1] is listed as 3600 nM and the Ki (Cloned Human 5-HT1D-2) is listed as 1200 ± 115 nM.

For CN1CCc2cc(Cl)c(O)cc2[C@@H](c2ccccc2)C1 [SCH-23390], the Ki (Cloned Human 5-HT1D-1) was 676 ± 69 nM and the Ki (Cloned Human 5-HT1D-2) was 1210 ± 626 nM.

In the case of O=C(CCCN1CCC2(CC1)C(=O)NCN2c1ccccc1)c1ccc(F)cc1 [Spiperone], the Ki (Cloned Human 5-HT1D-1; [4]) is reported as 995 ± 96 nM, the Ki (Cloned Human 5-HT1D-2) is reported as greater than 10000 nM and the Ki [2] is reported as greater than 1000 nM.

With CNS(=O)(=O)Cc1ccc2[nH]cc(CCN(C)C)c2c1 [Sumatriptan] the “affinity” value (Cloned Human 5-HT1D-1; refers to Table 1) was “extremely high affinity”.

In the case of FC(F)(F)c1cccc(N2CCNCC2)c1 [TFMPP], the Ki [1] is given as 210 nM and the Ki [2, 4] is given as 112 ± 14 nM.

For NCCc1c[nH]c2ccccc12 [Tryptamine], the Ki [1] is listed as 46 nM and the Ki [2, 4] is listed as 343 ± 15 nM.

In the case of COC(=O)[C@@H]1[C@H]2C[C@H]3c4[nH]c5ccccc5c4CCN3C[C@@H]2CC[C@@H]1O [Yohimbine], the Ki (Cloned Human 5-HT1D-1; [4]) is given as 22 ± 2 nM, the Ki [1] is given as 42 nM and the Ki [2, 4] is given as 32 ± 6 nM.

COc1cc(N)c(Cl)cc1C(=O)NC1CN2CCC1CC2 (stereo not shown) [Zacopride] gave a Ki (Cloned Human 5-HT1D-1) greater than 10000 nM, a Ki (Cloned Human 5-HT1D-2) greater than 10000 nM and a Ki [2] greater than 10000 nM.

Molecule CC(C)(C)NCC(O)COc1cccc2[nH]c(C#N)c(I)c12 (stereo not shown) [[^125I]iodocyanopindolol] has a Kd ([3]; Cos-7 membranes, in the presence of 3 μM isoproterenol, read-out: Kd of [125I]iodocyanopindolol) of 0.16 nM.

For CC(C)(C)NCC(O)COc1cccc2[nH]c(C#N)c([125I])c12 (stereo not shown) [[^125I]iodocyanopindolol], the “specific binding of [125I]I-CYP” value (human 5-HT1D clone; at 1 nM) was “no specific binding detected”.

In the case of Clc1cccc(N2CCNCC2)c1 [mCPP], the Ki (Cloned Human 5-HT1D-1; [4]) is given as 216 ± 20 nM, the Ki [1] is given as 1200 nM and the Ki (Cloned Human 5-HT1D-2; [4]) is given as 361 ± 31 nM. For the same molecule, the Ki [2, 4] was 329 ± 80 nM.

For Corynanthine, the Ki [1] is given as greater than 10000 nM.

With ^3H-5-HT the Kd (human 5-HT1D clone; read-out: Kd of [3H]5-HT) was 4 nM, the Kd ([2]; read-out: KD of radioligand (apparent high affinity), RDC4-transfected Cos-7 and Ltk- cells) was roughly 3 nM and the Kd ([2]; read-out: Kd of radioligand, Ltk- cells transfected with RDC4) was 3.6 nM. For the same molecule, the Kd ([2]; read-out: affinity of radioligand binding, transiently transfected Cos-7 cells, RDC4) was 3 nM.
